Experimental data: US8334366B1, “Mutant lycotoxin-1 peptide sequences for insecticidal and cell membrane altering properties” (The United States of America, as represented by the …, priority 2009, dated 2012)

Key:
[1] = system: INVSc1-XI-Lyt-1 yeast cells; assay: Scanning electron microscopy of yeast strains expressing variants; type: cell-based, Saccharomyces cerevisiae; conditions: INVSc1-XI-Lyt-1 yeast strain expressing the variant
Procedure: Yeast cells from the plate were suspended in saline (0.85% NaCl) and centrifuged to remove the residual medium. Following a modified procedure of Bang and Pazirandeh [Bang and Pazirandeh. Physical properties and heavy metal uptake of encapsulated Escherichia coli expressing a metal binding gene (NCP). J. Microencapsul. 1999; 16(4): 489-499], the cell pellet was suspended and fixed in 2.5% glutaraldehyde prepared in 100 mM cacodylate buffer, pH 7.2, for 1 h on ice. To remove remaining glutaraldehyde, the cells were rinsed with the buffer twice and then with distilled water once, allowing several minutes for each step. The cells were dehydrated in solutions containing 50, 70, 80 and 100% ethanol successively for 15 min for each treatment. Cells were mounted on the aluminum stub and placed in the desiccator to dry overnight or until needed. The samples were subjected to scanning electron microscopy and analysis (Zeiss Supra 40 VP).

[2] = system: fall armyworm (Spodoptera frugiperda) larvae; assay: Lethality of single INVSc1-XI-Lyt-1 yeast strain isolates expressing Lyt-1 toxin variants on xylose plates to fall armyworm larvae; type: in vivo; conditions: for relative mortality compared with mutants C3 and A6 (frequency analysis) / mortality compared pairwise (C6 vs B9; A6 vs C3), frequency analysis: SAS Proc Freq, data adjusted for colony size, P<0.05; for relative mortality compared with mutants C3 and A6 (frequency analysis): 20-insect sample; for state of armyworms on plates containing cultures expressing variants: compared with INVSc1-XI control plate; for Day 1 (% killed) / Day 2 (% killed): single isolates grown 3 days on CM xylose URA/TRP plates, 4 plates averaged, 20 larvae/plate, adjusted for colony size
Procedure: Samples of the transformation reactions from each of the multiplex wells were recovered on 86×128 mm rectangular CM glucose URA/TRP-selective plates for 2 days at 30° C. and diluted 10.000-fold in sterile water; then 200 μl was spotted onto the respective CM xylose URA/TRP-selective plates and allowed to grow for 3 days to generate a yeast growth area (spot) expressing toxins. The size of the spot was recorded and used to normalize the percent killed, since the percent is a function of the amount of yeast encountered. Twenty newly hatched armyworm larvae were added to the growth spot on the plate, the plate was covered with a lid having five small 0.4 mm openings in the center protected with cotton organdy cloth, and the lid was sealed to the plate with Microseal ‘A’ film (MJ Research, Waltham, Mass.) cut so that a gasket 5-mm wide could seal the edges. The plates were scored for the number of dead armyworms daily after adding the larvae until the assay was ended. Results from days 1 and 2 were of the greatest importance for a commercially viable insecticide. The multiplexed wells having the mutants showing greatest lethality (positions 8, 9, and 10) were selected and the multiplexed wells containing the lycotoxin-1 inserts in pENTR D TOPO corresponding to those positions were transformed into TOP 10 cells, single colonies picked from spread plates, and a plasmid preparation performed. The sequences of 90 AASM variant single isolates picked from the three most lethal multiplexed wells were determined. Forty-five of these had inserts with complete sequences in the correct orientation. Nine were C3, while 36 of them were unique variants and these were selected for the second lethality assay. They were moved into pSUMOduo/TRP via LR clonase, retransformed into INVSc1-XI yeast, and recovered on CM glucose URA/TRP-selective plates. Single colonies with sequence-verified inserts were picked into CM glucose URA/TRP-selective liquid medium, grown, and diluted 10,000-fold. A 100 μl sample was spotted onto CM xylose URA/TRP-selective plates and analyzed for lethality, along with samples containing C3, in quadruplicate, with 20 newly hatched armyworm larvae added to each plate. The variants were scored for dead armyworms and the percent killed was calculated.
Single colonies were picked from the multiplexed wells for the mutation positions showing greatest lethality. Growing yeast spots containing the individual variants were tested for lethality to fall armyworm larvae. Percent dead on day 2 for C3, B9, A6, and C6 were 71, 97, 74, and 100%, respectively (Table 2). The two AASM mutants B9 and C6 were more lethal than the NNR mutant C3. The numbers are normalized for diameter of the colony on the xylose plates. […] Frequency analysis was performed using SAS Proc Freq (SAS Institute 1999) with data adjusted for colony size and assuming a conservative 20-insect sample for each treatment.

[3] = system: transformed host cell; assay: Expression of variant peptide in transformed host cell (membrane crossing, intracellular membranes); type: cell-based; conditions: expression in a transformed host cell
[4] = system: fall armyworm (Spodoptera frugiperda) larvae; assay: Initial screen: lyophilized yeast cultures expressing lycotoxin-1 / NNR mutants mixed with insect diet, armyworm larvae assay; conditions: lyophilized yeast culture in pYES2-DEST52/INVSc1 mixed with rehydrated insect diet, oral, 20 newly hatched larvae

Row | Sequence | cell surface morphology in scanning electron micrographs [1] | relative mortality compared with mutants C3 and A6 (frequency analysis) [2] | mortality compared pairwise (C6 vs B9; A6 vs C3), frequency analysis [2] | state of armyworms on plates containing cultures expressing variants [2] | Day 1 (% killed) [2] | Day 2 (% killed) [2] | Day 2 (% killed) ([2]; listed as XI Lyt-1 C6) | build-up of intracellular membranes (tubules) on expression [3] | Day 2 (% killed) ([2]; listed as XI Lyt-1 A6) | Day 2 (% killed) ([2]; listed as XI Lyt-1 B9) | lethality to armyworms in initial screening [4]
1 | IWLTALKFSGKHAAKHLAKQQLSPW (Completely synthesized from synthetic oligonucleotides) [C6, lycotoxin-1 variant with mutations L9S, K24P, L25W] | numerous bulges and irregularities on the surface | significantly greater than mortality caused by mutants C3 and A6 | not significantly different | much smaller and mostly or all dead | 3.7% | 100% | 100.0% | significant build-up of intracellular membranes | – | – | –
2 | IWLTALKHLGKHAAKHLAKQQLSPW (Completely synthesized from synthetic oligonucleotides) [A6, lycotoxin-1 variant with mutations F8H, K24P, L25W] | numerous bulges and irregularities on the surface | – | not significantly different | much smaller and mostly or all dead | 13.2% | 74% | – | – | 74.1% | – | –
3 | IWLTALKFLQKHAAKHLAKHSLSPW (Completely synthesized from synthetic oligonucleotides) [B9, lycotoxin-1 variant with mutations G10Q, Q20H, Q21S, K24P, L25W] | numerous bulges and irregularities on the surface | significantly greater than mortality caused by mutants C3 and A6 | – | much smaller and mostly or all dead | 0.0% | 97% | – | – | – | 97.2% | –
4 | IWLTALKFLGKHAAKHLAKQQLSKL [wild-type lycotoxin-1] | – | – | – | – | – | – | – | – | – | – | not found to be lethal
